For nine compounds, AC50, IC50 and Ki results are on record in ChEMBL document CHEMBL1201862, “PubChem BioAssay data set” (2004).

Broadly, the AC50 is the midpoint of the concentration-response curve, whichever way the signal moves. For orientation: IC50 means the concentration at which inhibition is half-maximal. By Ki is commonly meant the dissociation constant of the complex between target and ligand, obtained from inhibition or displacement.

Calls of active or inactive are those of the source. Where only a bound is given, the exact number is not on record here.

The nature of test [1]: general mammalian cell viability loss – activator set, cherry-pick, cytotoxicity control for miR-122 modulator project, dose response (AID 720690).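 Note: HEK293T human cells scored for general mammalian cytotoxicity.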 In kind it is functional, cell-based.
The nature of test [2]: general mammalian cell viability loss – inhibitor set, cherry-pick, set 2, cytotoxicity control for miR-122 modulator project, dose response (AID 720697). In kind it is functional, cell-based.
Test [3] is described as follows: activation of miR-122 Renilla sensor silencing – cell-based, Huh7 psiCHECK-miR122, Renilla luciferase, cherry-picked, dose response (AID 651956).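 Note: huh7 hepatoma cells stably carrying a psiCHECK-2 miR-122 sensor plasmid; renilla luciferase signal reporting endogenous miR-122 activity after 48 h compound exposure.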 Format: functional.
Test [4] in a line: P. falciparum Dd2 growth inhibitors, dose response, SYBR Green, cherry-picked samples (AID 1159567). In kind it is functional, cell-based.
Test [5] in a line: OVCAR-3 cell viability loss – plate reader, dry powder samples, PAX8 inhibitor project, dose response (AID 743044). In kind it is functional, cell-based.
A short description of test [6]: OVCAR8 cell viability loss – plate reader, dry powder samples, PAX8 project, dose response (AID 743197). Format: functional, cell-based. Particulars: OVCAR-8.
The nature of test [7]: IGROV1 cell killing – plate reader, dry powder samples, PAX8 inhibitor project, dose response (AID 743043). Format: functional, cell-based. Particulars: IGROV-1.
Test [8] is described as follows: A2780 cell killing – plate reader, dry powder samples, cytotoxicity control, dose response (AID 743046). In kind it is functional, cell-based.
Test [9] can be described thus: CMV-driven luciferase expression suppression in HEK293 – cell-based, luminescence, dry powder, counter-screen for Pax8 inhibitor project, dose response (AID 743020). Format: functional. (Counterscreens check selectivity or assay interference.)
For test [10], the target named is Paired box protein Pax-8 (Homo sapiens, UniProt Q06710). The test is described as follows: PAX8 transcriptional activity inhibition in RMG-I – RMG-I cells, luciferase, cherry-pick, dose response (AID 687027).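 Note: luciferase reporter driven by Pax8 target thyroperoxidase promoter measured by SteadyGlo luminescence.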 In kind it is functional, cell-based.
Sequence of Paired box protein Pax-8 (Q06710 whole entry): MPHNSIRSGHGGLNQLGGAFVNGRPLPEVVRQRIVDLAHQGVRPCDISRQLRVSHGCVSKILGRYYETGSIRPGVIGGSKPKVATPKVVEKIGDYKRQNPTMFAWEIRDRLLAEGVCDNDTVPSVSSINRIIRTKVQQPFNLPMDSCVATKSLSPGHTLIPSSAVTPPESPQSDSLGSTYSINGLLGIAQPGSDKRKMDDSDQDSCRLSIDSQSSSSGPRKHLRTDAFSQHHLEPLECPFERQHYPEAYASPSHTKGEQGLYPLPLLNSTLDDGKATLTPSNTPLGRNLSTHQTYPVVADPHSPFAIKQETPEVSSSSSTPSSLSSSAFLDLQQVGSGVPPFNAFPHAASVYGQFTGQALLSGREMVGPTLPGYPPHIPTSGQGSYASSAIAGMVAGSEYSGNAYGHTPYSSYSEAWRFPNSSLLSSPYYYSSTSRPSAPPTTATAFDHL
Test [11] in a line: blockade of melanocortin 4 receptor signaling – cell-based, plate reader, cherry pick, counter-screen for LGR2 antagonist project, dose response (AID 743444).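 Note: transfected HEK 293 cells stimulated with alpha-MSH peptide; potency of inhibitors of the alpha-MSH evoked signal.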 Format: functional.
Test [12] is described as follows: blockers of bursicon-stimulated LGR2 cAMP reporter – cell-based, HEK293, CRE-luciferase reporter, cherry pick, set 2, dose response (AID 743343).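 Note: transfected cells were stimulated with diluted bursicon conditioned medium after compound addition.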 In kind it is functional. (A reporter such as luciferase makes a cellular process visible.)
Test [13] is described as follows: A549 cell cytotoxicity, dose response, cytotoxicity control, plate reader, cherry-pick, antagonist series (AID 743412). Format: functional, cell-based.
Test [14] can be described thus: viability loss in HEK293 cells – cell-based, plate reader, cherry-picked samples, cytotoxicity control, dose response (AID 743446). In kind it is functional.
Test [15] in a line: toxicity to human HepG2 hepatoma cells – cell-based, plate reader, dry powder samples, cytotoxicity control, dose response (AID 1159569).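 Note: inhibitor potency with signal falling toward the positive control level.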 Format: functional.
The nature of test [16]: Dd2 malaria parasite growth inhibition potency – SYBR Green, dry powder samples, dose response (AID 1159566).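 Note: potency for growth inhibition with lower SYBR green DNA signal.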 Format: functional, cell-based.
Test [17] can be described thus: toxicity toward HepG2 liver cells – cell-based, plate reader, cherry-pick, antagonist series, cytotoxicity control, dose response (AID 743416). Format: functional.
Test [18] in a line: growth inhibition of yeast DHODH-expressing 3D7 parasites – SYBR Green, dry powder samples, dose response (AID 1159570).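 Note: parasite growth measured after 72 hours of compound exposure.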 Format: functional, cell-based.
Test [19] is described as follows: growth inhibition of PfATP4-mutant resistant parasites – NITD609-resistant line, SYBR Green, dry powder, dose response (AID 1159571).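 Note: parasites synchronized at ring stage by sorbitol before testing.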 Format: functional, cell-based.
Test [20] can be described thus: toxicity toward immortalized ovarian surface epithelium – cell-based, plate reader, dry powder samples, cytotoxicity control for PAX8 inhibitor project, dose response (AID 743045). In kind it is functional.
A short description of test [21]: liver cell line viability loss – HepG2, luminescence plate reader, powder samples, set 2, cytotoxicity control, dose response (AID 651860). Format: functional, cell-based.
Test [22] has as its target Endoplasmic reticulum aminopeptidase 1 (Homo sapiens, UniProt Q9NZ08). The test is described as follows: inhibition of human ERAP1 enzyme activity – biochemical, cherry-pick, set 2, plate reader, dose response (AID 743314).
Test [23] is described as follows: Late stage assay provider results from the probe development effort to identify selective inhibitors of heat shock protein 90 (HSP90): Absorbance-based cell proliferation assay in SKBR3 cells. In kind it is functional. Particulars: SK-BR-3.
Test [24] is described as follows: Late stage assay provider results from the probe development effort to identify selective inhibitors of heat shock protein 90 (HSP90): Absorbance-based cell proliferation assay in MCF7 cells. Format: functional.
The target in test [25] is Potassium channel subfamily K member 3 (Homo sapiens, UniProt O14649). The test is described as follows: inhibition of human KCNK3 channel flux – CHO cells, FluxOR thallium flux, SAR follow-up (AID 652212). Format: functional.
Sequence of Potassium channel subfamily K member 3 (O14649 whole entry): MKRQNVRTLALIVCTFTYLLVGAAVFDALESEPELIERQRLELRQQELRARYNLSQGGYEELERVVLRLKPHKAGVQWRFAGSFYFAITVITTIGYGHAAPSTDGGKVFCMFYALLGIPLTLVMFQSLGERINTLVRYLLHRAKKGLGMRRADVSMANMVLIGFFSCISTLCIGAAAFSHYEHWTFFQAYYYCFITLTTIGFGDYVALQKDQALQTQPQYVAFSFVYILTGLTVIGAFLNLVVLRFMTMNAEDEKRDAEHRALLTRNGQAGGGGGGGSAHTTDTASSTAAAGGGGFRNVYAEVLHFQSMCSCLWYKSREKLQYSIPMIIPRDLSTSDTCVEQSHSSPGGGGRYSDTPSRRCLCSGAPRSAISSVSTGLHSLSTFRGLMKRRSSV
Test [26] deals with INS1. The test is described as follows: INS-1E survival protection against cytokine death – cell-based, luminescence, retest, dose response (AID 449756).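 Note: cell death triggered by IL-1 beta plus TNF-alpha plus IFN-gamma mixture; protective hits raise ATP signal compared with cytokine alone wells.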 In kind it is functional. Particulars: Rattus norvegicus.
The target in test [27] is Nonstructural protein 1 (Influenza A virus, UniProt Q194T2). Format: functional, Influenza A virus (A/California/07/2009(H1N1)).
Sequence of Nonstructural protein 1 (Q194T2 whole entry): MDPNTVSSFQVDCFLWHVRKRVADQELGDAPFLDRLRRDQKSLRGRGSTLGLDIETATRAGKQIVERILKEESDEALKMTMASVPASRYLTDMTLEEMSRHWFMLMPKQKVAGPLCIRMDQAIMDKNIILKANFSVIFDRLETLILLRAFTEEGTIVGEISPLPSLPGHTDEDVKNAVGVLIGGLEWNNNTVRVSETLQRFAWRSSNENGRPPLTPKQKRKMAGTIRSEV
The target of test [28] is fMet-Leu-Phe receptor (Homo sapiens, UniProt P21462). The test is described as follows: formyl peptide receptor binders – dose response (AID 519). In kind it is functional.
Sequence of fMet-Leu-Phe receptor (P21462 whole entry): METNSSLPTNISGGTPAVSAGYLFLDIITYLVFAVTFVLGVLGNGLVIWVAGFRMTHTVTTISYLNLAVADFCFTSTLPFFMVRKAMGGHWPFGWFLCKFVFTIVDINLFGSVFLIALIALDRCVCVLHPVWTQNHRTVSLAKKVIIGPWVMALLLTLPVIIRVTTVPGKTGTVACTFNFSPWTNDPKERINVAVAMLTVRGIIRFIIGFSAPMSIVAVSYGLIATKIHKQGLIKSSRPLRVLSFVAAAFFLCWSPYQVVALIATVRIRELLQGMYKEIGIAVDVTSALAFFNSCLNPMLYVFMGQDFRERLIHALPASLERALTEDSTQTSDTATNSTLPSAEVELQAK
The target of test [29] is Cytochrome P450 3A4 (Homo sapiens, UniProt P08684).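 Note: CYP3A4 tested as one member of a cytochrome P450 panel screen.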
Sequence of Cytochrome P450 3A4 (P08684 whole entry): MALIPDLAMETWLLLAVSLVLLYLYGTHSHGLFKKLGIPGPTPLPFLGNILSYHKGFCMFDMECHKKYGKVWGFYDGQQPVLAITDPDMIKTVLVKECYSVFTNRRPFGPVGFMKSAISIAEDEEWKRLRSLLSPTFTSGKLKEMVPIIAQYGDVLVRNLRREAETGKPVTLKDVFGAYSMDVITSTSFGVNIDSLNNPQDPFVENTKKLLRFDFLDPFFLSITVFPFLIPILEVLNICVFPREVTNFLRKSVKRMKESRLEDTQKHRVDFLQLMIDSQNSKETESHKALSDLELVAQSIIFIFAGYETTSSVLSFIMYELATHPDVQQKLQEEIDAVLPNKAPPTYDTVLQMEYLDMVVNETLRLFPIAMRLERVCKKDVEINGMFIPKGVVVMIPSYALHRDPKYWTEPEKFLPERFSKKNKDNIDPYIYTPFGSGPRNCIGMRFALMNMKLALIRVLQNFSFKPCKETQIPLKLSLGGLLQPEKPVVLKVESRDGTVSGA
The nature of test [30]: T. cruzi growth inhibition in host cells, dose response, cell-based, plate reader, dry powder, set 2 (AID 652275). In kind it is functional.

Sequence of Endoplasmic reticulum aminopeptidase 1 (Q9NZ08 whole entry): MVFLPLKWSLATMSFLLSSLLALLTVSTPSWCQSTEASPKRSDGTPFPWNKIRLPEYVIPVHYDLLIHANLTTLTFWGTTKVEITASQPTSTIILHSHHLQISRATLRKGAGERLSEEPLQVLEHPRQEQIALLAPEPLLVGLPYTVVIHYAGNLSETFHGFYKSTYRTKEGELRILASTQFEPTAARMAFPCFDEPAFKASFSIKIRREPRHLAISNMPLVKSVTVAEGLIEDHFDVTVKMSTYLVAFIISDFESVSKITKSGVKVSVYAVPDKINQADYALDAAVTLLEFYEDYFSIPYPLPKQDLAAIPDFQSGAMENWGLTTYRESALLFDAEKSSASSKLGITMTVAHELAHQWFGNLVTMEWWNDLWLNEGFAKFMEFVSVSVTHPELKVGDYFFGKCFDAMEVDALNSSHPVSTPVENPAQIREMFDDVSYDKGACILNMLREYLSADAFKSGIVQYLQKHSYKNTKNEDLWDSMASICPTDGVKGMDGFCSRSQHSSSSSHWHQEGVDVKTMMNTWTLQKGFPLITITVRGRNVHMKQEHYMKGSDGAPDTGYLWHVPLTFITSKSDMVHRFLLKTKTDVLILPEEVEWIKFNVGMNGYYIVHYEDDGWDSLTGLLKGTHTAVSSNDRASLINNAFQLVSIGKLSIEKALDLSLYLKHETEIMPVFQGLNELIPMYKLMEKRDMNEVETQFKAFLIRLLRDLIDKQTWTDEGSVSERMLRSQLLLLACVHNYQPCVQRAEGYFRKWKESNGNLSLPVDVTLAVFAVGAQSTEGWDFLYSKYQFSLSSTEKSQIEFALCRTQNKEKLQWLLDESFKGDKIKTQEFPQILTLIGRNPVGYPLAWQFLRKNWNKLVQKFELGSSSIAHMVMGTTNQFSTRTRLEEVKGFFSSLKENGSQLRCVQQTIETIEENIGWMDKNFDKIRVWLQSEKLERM

As for `C[C@@H]1CN([C@@H](C)CO)S(=O)(=O)c2ccc(C#Cc3ccccc3F)cc2O[C@@H]1CN(C)C(=O)Cc1ccncc1`, the figures for the concentration at half-maximal activity (AC50) in test [1], in [2] and in [3] were 45 µM (active), 5.41 µM (active) and 6.5 µM (active), respectively.

For `CN1c2ccc(-c3cccc(C#N)c3)cc2[C@H]2[C@H](CCN2S(=O)(=O)c2ccccc2F)[C@H]1CO`, the AC50 was 3.57 µM (active) in test [4]; 16.6 µM (active) in test [5]; 23.4 µM (active) in test [6]; 33.3 µM (active) in [7]; 38.1 µM (active) in test [8]; 28.2 µM (active) in test [9]. Moreover, the AC50 in test [10] is 4.87 µM (active).

For the compound `N#Cc1ccc(-c2ccc([C@@H]3[C@@H]4CN(C(=O)C5CC5)C[C@H]3N4)cc2)cc1`, the half-maximal activity concentration (AC50) in [4] is < 0.3 µM (active); in test [11], 0.684 µM (active); in test [5], 7.05 µM (active); in test [12], 1.22 µM (active); in test [6] it was 19.9 µM (active); in test [7], 4.73 µM (active). The half-maximal activity concentration (AC50) in test [13] is 0.821 µM (active); in [14], 1.7 µM (active); in [15], 1.41 µM (active); in [16], 0.376 µM (active); in test [17], 1.97 µM (active); in test [18], 0.328 µM (active). For the same compound, the AC50 in test [19] is 0.449 µM (active); in [8] it was 7.18 µM (active); in test [20] it was 40.5 µM (active); in test [10], 1.16 µM (active).

With `O=C(O)C1CCCCC1C(=O)N1CCc2ccccc2C1CN1C(=O)Cc2ccccc2C1=O` (stereo unspecified), in [21], the AC50 was > 52 µM (inactive).

In the case of `C[C@H](CO)N1C[C@H](C)[C@H](CN(C)C(=O)Nc2ccccc2)Oc2ncccc2C1=O`, in test [22], the half-maximal activity concentration (AC50) was 12.3 µM (active).

With `CCCCOc1cccc(NC(=O)c2coc(=O)c(Br)c2)c1`, the IC50 in [23] is 32.9 µM (inactive); in test [24] it was 22.8 µM (inactive).

For the compound `COc1ccc(C(=O)Nc2cccc(NC(=O)c3ccccc3)c2)cc1`, the half-inhibitory concentration (IC50) in test [25] was 4.46 µM (active).

Turning to `Nc1ccc(Nc2ccccc2)cc1`, the concentration at half-maximal activity (AC50) in test [26] was 7.64 µM (active); in [29], 20 µM (inconclusive). In addition, the IC50 in test [27] is 45.3 µM (active). In test [28], the Ki was > 66.7 µM (inactive).

`O=C(Cn1ccnc1[N+](=O)[O-])NCc1ccccc1` [BENZNIDAZOLE]: the AC50 in [30] was 0.153 µM (active).
